Here are results for 13 molecules from ChEMBL document CHEMBL1909046, “DrugMatrix in vitro pharmacology data”.

What is called IC50 is the concentration at which inhibition is half-maximal. One may read the Ki as a measure of affinity in units of concentration, obtained from inhibition or displacement.

The target in data set [1] is T1, C-C chemokine receptor type 4 (Homo sapiens, UniProt P51679).
T1 sequence (P51679 whole entry): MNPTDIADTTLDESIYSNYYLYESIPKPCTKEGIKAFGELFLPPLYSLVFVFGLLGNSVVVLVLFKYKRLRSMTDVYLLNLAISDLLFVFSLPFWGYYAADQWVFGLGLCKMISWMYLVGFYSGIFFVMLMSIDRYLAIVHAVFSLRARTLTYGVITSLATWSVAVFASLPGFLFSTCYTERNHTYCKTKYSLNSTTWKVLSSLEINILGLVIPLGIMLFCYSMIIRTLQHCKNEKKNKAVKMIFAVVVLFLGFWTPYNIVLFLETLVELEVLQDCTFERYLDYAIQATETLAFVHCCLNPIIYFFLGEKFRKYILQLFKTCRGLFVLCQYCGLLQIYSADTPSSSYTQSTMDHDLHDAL
In kind it is cell membranes, Membrane. To be noted: chem-1.

The next data set concerns the target Glycine receptor (Rattus norvegicus, UniProt P22771+P24524+P07727+P20781). It counts as cell membranes, Wistar, Spinal cord, Membrane.
The next data set has as its target Insulin receptor (Rattus norvegicus, UniProt P15127). It counts as cell membranes, Wistar, Liver, Membrane.
Data set [2] has as its target T2, Cysteinyl leukotriene receptor 1 (Homo sapiens, UniProt Q9Y271).
T2 sequence (Q9Y271 whole entry): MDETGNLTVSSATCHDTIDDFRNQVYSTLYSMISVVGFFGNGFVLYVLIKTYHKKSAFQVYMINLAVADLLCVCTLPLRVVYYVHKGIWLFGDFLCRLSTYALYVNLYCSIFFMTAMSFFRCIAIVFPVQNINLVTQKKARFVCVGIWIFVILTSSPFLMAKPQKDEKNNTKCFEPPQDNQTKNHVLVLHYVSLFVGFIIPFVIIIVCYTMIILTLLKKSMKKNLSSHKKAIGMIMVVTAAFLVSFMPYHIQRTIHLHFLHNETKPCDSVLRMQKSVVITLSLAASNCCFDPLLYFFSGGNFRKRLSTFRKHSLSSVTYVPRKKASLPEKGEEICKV
It counts as cell membranes, Membrane. To be noted: cho-k1.

Data set [3] deals with T3, Muscarinic acetylcholine receptor M4 (Homo sapiens, UniProt P08173).
T3 sequence (P08173 whole entry): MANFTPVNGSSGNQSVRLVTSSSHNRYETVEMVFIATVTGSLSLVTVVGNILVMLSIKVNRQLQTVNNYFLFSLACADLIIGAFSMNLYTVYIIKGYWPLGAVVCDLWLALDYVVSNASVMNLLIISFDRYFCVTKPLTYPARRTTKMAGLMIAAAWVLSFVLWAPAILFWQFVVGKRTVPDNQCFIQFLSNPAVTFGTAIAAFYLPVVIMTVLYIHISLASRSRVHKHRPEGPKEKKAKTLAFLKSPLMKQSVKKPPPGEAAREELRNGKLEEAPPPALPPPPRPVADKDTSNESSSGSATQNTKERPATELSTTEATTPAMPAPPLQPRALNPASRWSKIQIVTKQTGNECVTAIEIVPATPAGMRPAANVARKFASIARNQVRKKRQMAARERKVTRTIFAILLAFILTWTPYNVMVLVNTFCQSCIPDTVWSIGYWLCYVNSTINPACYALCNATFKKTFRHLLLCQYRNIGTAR
It counts as cell membranes, CHO-K1, Membrane.

For data set [4], the target named is T4, Receptor-type tyrosine-protein phosphatase C (Homo sapiens, UniProt P08575).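 Also: inhibition of CD45 enzyme activity measured using DiFMUP as substrate.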
T4 sequence (P08575 whole entry): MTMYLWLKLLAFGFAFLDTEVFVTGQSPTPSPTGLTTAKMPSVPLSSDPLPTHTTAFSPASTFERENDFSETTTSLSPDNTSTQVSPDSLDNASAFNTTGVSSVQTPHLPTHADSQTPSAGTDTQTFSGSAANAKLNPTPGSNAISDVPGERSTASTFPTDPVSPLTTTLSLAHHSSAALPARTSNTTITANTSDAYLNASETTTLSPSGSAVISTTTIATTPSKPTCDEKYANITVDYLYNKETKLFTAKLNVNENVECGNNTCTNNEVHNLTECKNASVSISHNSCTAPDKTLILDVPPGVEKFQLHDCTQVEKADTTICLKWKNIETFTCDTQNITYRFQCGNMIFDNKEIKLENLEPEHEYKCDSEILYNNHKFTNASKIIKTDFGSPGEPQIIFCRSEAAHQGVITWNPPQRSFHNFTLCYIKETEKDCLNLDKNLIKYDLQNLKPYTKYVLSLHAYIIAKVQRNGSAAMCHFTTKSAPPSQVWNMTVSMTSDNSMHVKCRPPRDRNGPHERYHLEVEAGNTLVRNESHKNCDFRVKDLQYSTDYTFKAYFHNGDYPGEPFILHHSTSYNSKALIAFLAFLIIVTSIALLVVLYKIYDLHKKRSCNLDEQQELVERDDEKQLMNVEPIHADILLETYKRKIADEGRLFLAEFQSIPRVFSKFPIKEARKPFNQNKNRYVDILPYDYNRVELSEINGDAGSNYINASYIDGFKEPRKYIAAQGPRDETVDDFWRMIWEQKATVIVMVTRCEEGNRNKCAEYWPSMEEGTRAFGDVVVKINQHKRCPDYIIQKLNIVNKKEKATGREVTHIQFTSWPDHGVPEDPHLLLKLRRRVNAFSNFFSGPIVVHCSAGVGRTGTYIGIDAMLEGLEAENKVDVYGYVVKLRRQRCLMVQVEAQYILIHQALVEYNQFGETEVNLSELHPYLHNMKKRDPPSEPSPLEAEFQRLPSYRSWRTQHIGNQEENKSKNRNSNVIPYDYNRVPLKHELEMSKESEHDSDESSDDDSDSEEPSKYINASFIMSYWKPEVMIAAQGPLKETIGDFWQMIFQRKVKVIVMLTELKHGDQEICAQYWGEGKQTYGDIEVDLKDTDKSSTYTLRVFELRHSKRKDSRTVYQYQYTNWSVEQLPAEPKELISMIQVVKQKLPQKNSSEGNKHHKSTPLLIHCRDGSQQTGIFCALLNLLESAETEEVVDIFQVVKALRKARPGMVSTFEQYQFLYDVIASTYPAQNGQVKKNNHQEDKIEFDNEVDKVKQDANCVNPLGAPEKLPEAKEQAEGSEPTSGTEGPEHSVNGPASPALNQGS
Set-up: species or system Escherichia coli.

In data set [5] the target is 5-hydroxytryptamine receptor 1B (Rattus norvegicus, UniProt P28564). It counts as cell membranes, Wistar, Cerebral cortex, Membrane.
Chain of 5-hydroxytryptamine receptor 1B (P28564 whole entry): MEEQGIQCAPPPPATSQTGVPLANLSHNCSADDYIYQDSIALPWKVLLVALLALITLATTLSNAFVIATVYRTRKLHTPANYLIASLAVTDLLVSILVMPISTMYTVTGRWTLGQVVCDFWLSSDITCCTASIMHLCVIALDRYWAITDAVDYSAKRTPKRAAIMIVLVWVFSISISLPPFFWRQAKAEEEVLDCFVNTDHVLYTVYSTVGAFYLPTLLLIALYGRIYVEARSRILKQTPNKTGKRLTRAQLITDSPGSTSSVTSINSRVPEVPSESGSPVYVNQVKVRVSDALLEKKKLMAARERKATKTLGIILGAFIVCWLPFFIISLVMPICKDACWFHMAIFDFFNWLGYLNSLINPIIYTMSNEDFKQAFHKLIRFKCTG
Another data set deals with Cytochrome P450 2E1 (Homo sapiens, UniProt P05181). To be noted: bti-tn-5b1-4.
Chain of Cytochrome P450 2E1 (P05181 whole entry): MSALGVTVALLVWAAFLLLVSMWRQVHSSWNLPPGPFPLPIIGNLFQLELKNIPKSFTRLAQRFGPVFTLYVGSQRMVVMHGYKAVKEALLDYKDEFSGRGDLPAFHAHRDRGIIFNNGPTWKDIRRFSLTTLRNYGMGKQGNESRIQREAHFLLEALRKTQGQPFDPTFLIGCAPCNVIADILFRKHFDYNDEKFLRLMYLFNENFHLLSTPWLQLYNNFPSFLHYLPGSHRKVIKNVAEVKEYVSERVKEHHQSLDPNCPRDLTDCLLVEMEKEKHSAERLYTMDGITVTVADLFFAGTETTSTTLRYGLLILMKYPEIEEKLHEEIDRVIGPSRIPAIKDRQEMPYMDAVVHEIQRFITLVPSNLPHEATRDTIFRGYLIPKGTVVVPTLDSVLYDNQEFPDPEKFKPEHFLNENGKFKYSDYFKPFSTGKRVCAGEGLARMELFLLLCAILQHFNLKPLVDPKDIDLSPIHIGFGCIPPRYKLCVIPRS
Also: in other assays of this panel Not Active means under 50% inhibition at 10 µM.

Chain of Insulin receptor (P15127 27-759 limits assumed): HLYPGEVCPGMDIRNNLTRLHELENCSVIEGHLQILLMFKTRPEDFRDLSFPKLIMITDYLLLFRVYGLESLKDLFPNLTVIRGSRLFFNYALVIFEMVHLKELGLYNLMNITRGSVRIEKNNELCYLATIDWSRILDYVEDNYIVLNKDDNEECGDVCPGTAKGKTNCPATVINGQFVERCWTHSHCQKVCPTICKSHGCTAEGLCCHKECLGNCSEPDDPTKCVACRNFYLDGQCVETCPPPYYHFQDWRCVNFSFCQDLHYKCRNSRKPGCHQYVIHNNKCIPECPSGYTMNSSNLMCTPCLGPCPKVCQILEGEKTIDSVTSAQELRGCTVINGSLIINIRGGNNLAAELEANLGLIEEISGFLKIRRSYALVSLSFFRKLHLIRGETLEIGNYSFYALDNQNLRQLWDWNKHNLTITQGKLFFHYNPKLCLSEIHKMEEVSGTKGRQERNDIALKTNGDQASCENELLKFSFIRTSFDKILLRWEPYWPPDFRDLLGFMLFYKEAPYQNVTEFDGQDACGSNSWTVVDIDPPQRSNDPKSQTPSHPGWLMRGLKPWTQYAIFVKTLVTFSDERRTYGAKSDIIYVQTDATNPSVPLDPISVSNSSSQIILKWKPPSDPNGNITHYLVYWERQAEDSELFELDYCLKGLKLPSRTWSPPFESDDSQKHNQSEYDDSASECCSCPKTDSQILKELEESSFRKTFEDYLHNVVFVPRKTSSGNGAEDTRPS
Chain of Insulin receptor (P15127 764-1383 limits assumed): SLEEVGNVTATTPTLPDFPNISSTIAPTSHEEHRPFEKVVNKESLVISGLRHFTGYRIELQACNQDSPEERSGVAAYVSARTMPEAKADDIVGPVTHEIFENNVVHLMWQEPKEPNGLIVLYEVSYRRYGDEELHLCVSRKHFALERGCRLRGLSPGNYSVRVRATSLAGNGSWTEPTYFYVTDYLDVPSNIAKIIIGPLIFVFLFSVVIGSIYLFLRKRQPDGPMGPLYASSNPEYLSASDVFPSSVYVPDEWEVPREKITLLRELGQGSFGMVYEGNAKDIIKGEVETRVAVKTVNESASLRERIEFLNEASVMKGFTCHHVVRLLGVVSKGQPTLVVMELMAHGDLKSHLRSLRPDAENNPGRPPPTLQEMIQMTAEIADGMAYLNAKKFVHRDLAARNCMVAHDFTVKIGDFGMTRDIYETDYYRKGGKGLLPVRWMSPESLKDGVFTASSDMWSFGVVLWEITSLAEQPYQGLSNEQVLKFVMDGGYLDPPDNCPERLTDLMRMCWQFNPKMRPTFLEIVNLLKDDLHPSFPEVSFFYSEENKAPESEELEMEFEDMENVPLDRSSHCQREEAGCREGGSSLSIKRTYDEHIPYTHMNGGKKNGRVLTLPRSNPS

For the molecule `COC(=O)[C@H]1[C@H]2C[C@@H]3c4[nH]c5cc(OC)ccc5c4CCN3C[C@H]2C[C@@H](OC(=O)c2cc(OC)c(OC)c(OC)c2)[C@@H]1OC` [RESERPINE], the IC50 result (in data set [1]; on Glycine receptor; on Insulin receptor; in data set [2]; in data set [3] (cho-k1); in data set [4]) was “Not Active” in each case. The IC50 entry (in data set [5]; at Cytochrome P450 2E1) was “Not Active” throughout. Also, the Ki entry on Cytochrome P450 2E1 is “Not Active”.

As to `O=C(O)c1ccccc1O` [SALICYLIC ACID], the IC50 entry (in data set [1]; on Glycine receptor; on Insulin receptor; in data set [2]; in data set [3] (cho-k1); in data set [4]) was “Not Active” each time. The IC50 entry (in data set [5]; against Cytochrome P450 2E1) was “Not Active” in each case. Further, the Ki entry at Cytochrome P450 2E1 is “Not Active”.

In the case of `C[S+]([O-])c1ccc(-c2nc(-c3ccncc3)c(-c3ccc(F)cc3)[nH]2)cc1` (stereo not given) [SB-203580], the IC50 entry (in data set [1]; on Glycine receptor; against Insulin receptor; in data set [2]; in data set [3] (cho-k1); in data set [4]) was “Not Active” each time. In addition, the IC50 entry (in data set [5]; against Cytochrome P450 2E1) was “Not Active” each time. Also, the Ki entry at Cytochrome P450 2E1 is on record as “Not Active”.

In the case of `CC1CCC(NC(=O)N(CCCl)N=O)CC1` (stereo not given) [SEMUSTINE], the IC50 result (in data set [1]; against Glycine receptor; at Insulin receptor; in data set [2]; in data set [3] (cho-k1); in data set [4]) was “Not Active” each time. Besides, the IC50 entry (in data set [5]; at Cytochrome P450 2E1) was “Not Active” each time. In addition, on Cytochrome P450 2E1, the Ki entry is reported as “Not Active”.

Take `C[N+](C)(C)CCOC(=O)CCC(=O)OCC[N+](C)(C)C.[Cl-].[Cl-]` [SUCCINYLCHOLINE CHLORIDE]: the IC50 entry (in data set [1]; at Glycine receptor; at Insulin receptor; in data set [2]; in data set [3] (cho-k1); in data set [4]) was “Not Active” throughout. The IC50 result (in data set [5]; against Cytochrome P450 2E1) was “Not Active” each time. Further, the Ki entry at Cytochrome P450 2E1 was “Not Active”.

Turning to `Nc1ccc(S(=O)(=O)NC(=O)c2ccccc2)cc1` [SULFABENZAMIDE], the IC50 result (in data set [1]; against Glycine receptor; against Insulin receptor; in data set [2]; in data set [3] (cho-k1); in data set [4]) was “Not Active” each time. Moreover, the IC50 result (in data set [5]; against Cytochrome P450 2E1) was “Not Active” in each case. Besides, the Ki entry on Cytochrome P450 2E1 is listed as “Not Active”.

`CCCCCCCCNC(C)C(O)c1ccc(SC(C)C)cc1` (stereo not given) [SULOCTIDIL]: the IC50 entry was “Not Active” in data set [1]; “Not Active” on Glycine receptor; “Not Active” at Insulin receptor; “Not Active” in data set [2]; 4560 nM in data set [3] (read-out: IC50); “Not Active” in data set [4]. For the same molecule, the IC50 entry (in data set [5]; on Cytochrome P450 2E1) was “Not Active” in each case. Further, the Ki in data set [3] (read-out: Ki) was 636 nM; on Cytochrome P450 2E1 it was “Not Active”.

In the case of `O=c1[nH]c(=O)n(C2CCCO2)cc1F` (stereo not given) [TEGAFUR], the IC50 entry (in data set [1]; against Glycine receptor; against Insulin receptor; in data set [2]; in data set [3] (cho-k1); in data set [4]) was “Not Active” each time. Further, the IC50 entry (in data set [5]; on Cytochrome P450 2E1) was “Not Active” each time. Also, the Ki result on Cytochrome P450 2E1 is “Not Active”.

Take `CC(=N)S` [THIOACETAMIDE]: the IC50 entry (in data set [1]; at Glycine receptor; on Insulin receptor; in data set [2]; in data set [3] (cho-k1); in data set [4]) was “Not Active” in each case. The IC50 result (in data set [5]; against Cytochrome P450 2E1) was “Not Active” each time. Besides, the Ki result on Cytochrome P450 2E1 is “Not Active”.

Regarding `Cc1ccc(C(=O)c2ccc(CC(=O)O)n2C)cc1` [TOLMETIN], the IC50 entry (in data set [1]; on Glycine receptor; on Insulin receptor; in data set [2]; in data set [3] (cho-k1); in data set [4]) was “Not Active” each time. The IC50 result (in data set [5]; on Cytochrome P450 2E1) was “Not Active” each time. Moreover, the Ki result on Cytochrome P450 2E1 was “Not Active”.

On to `CC(=O)OCC(COC(C)=O)OC(C)=O` [TRIACETIN], for which the Ki entry (in data set [1]; on Cytochrome P450 2E1) was “Not Active” throughout. The IC50 entry (against Glycine receptor; against Insulin receptor; in data set [2]; in data set [3] (cho-k1); in data set [4]; in data set [5]) was “Not Active” in each case. The IC50 entry at Cytochrome P450 2E1 is “Not Active”.

In the case of `CN1CCN(CCCN2c3ccccc3Sc3ccc(C(F)(F)F)cc32)CC1` [TRIFLUOPERAZINE], the Ki result (in data set [1]; at Cytochrome P450 2E1) was “Not Active” in each case. Moreover, the IC50 result (on Glycine receptor; against Insulin receptor; in data set [2]; in data set [3] (cho-k1); in data set [4]; in data set [5]) was “Not Active” throughout. Also, on Cytochrome P450 2E1, the IC50 entry is given as “Not Active”.

For TRANSPLATIN, the IC50 result (in data set [1]; against Glycine receptor; against Insulin receptor; in data set [2]; in data set [3] (cho-k1); in data set [4]) was “Not Active” in each case. Further, the IC50 entry (in data set [5]; on Cytochrome P450 2E1) was “Not Active” each time. Besides, the Ki entry (in data set [1]; at Glycine receptor; on Insulin receptor; in data set [2]; in data set [3] (cho-k1); in data set [4]) was “Not Active” each time. The Ki entry (in data set [5]; at Cytochrome P450 2E1) was “Not Active” each time.
